From patent US20230174584A1, “Antibiotic Compounds” (priority 2019, published 2023)
Converted amounts (≈) assume the structure as drawn.

Experiments:
[1] = system: MRSA USA300; experiment: MIC assay in the presence of sheep serum; type: cell-based, Staphylococcus aureus; settings: MRSA USA300, TSB + 0.002% p80 + 50% sheep serum
Method: (§1) The antibacterial activity of the compounds was tested against a panel of bacteria, including Gram-positive bacteria (S. aureus ATCC29213, S. aureus USA300, S. aureus LIM-2, NR-45881, S. aureus HIP13419, NR-46413, E. faecium E155, E. faecium E7314, E. faecium E980, E. faecalis E1246, E. faecalis E7406 and S. pneumonia 153). The antibacterial activity of the compounds was further tested against S. aureus NY-155, NR-46236, S. aureus HIP12864, NR-46074, S. aureus 880 (BR-VRSA), NR-49120, E. faecalis E1246, E. faecalis E7604, as well as some Gram-negative bacteria (Escherichia coli and Klebsiella pneumoniae). Minimum inhibitory concentrations (MICs) in μg/mL were performed according to the CLSI guidelines. From glycerol stocks, bacterial strains were cultured on blood agar plates and incubated at 37° C. for 18 h. A single colony was transferred to tryptic soy broth (TSB) with 0.002% polysorbate 80 (p80). For the Enterococcus, VISA and VRSA strains, the cultures were grown at 37° C. until the optical density of the suspension reached a level equivalent to the 0.5 McFarland standard. The bacterial suspensions were diluted in TSB with 0.002% p80 to reach a bacterial cell density of 10^6 CFU/mL. In case of the other (vancomycin-sensitive) S. aureus strains, the direct colony suspension method was used. For these strains, after transfer of the colonies to TSB with 0.002% p80, they were immediately diluted to 10^6 CFU/mL, instead of incubated prior to this dilution. In the case of S. pneumonia, direct colony suspension was used by immediately suspending multiple colonies from fresh blood agar plates in TSB+0.002% p80 to an OD600 of 0.5 and subsequent dilution to 10^6 CFU mL^−1 in TSB+0.002% p80+5% lysed horse blood. Antibiotic dilutions for this strains were also made in TSB+0.002% p80+5% lysed horse blood. Both agar and microplates containing S. pneumonia were incubated at 37° C. with 5% CO2 for 24 h with constant shaking (600 rpm). […] The cultures were grown to exponential phase (OD600=0.5) at 37° C. […] In polypropylene 96-well microtiter plates, test compounds were added in biological triplicates and serial diluted 2-fold by transfer and mixing from one well to the next to achieve a final volume of 50 μL per well. An equal volume of bacterial suspension (10^6 CFU mL^−1) was added to the wells. The plates were sealed with breathable membranes and incubated at 37° C. for 24 h with constant shaking (600 rpm). In polypropylene microtiter plates, 100 μL of the test compounds was added to the first row in biological triplicates, and 50 μL of media was added to the other wells. The compounds were subjected to serial dilution by transfer and mixing of 50 μL from one well to the next. Subsequently, 50 μL of bacterial suspension (10^6 CFU/mL) was added to the wells. The plates were sealed with breathable membranes and incubated at 37° C. for 24 h with constant shaking (600 rpm). Positive growth control consisted of wells with bacterial suspension and without antibiotic. Negative growth control consisted of solely media without bacterial suspension or antibiotic. The MICs were determined from the median of a minimum of triplicates.
The activity of the compounds was further assessed against MRSA USA300 strain in the presence of sheep) serum in another MIC assay. The cultures that grew in the presence of serum used TSB+0.002% P80+50% sheep serum as growth media, as opposed to normal MICs done in only TSB+0.002% P80.

[2] = system: HepG2 human hepatocellular carcinoma cells; experiment: Cytotoxicity assay for HepG2 (MTT); type: cell-based; settings: MTT, HepG2, 24 h, 10% FBS
Method: (§2) Mammalian cytotoxicity assays were performed by Cyprotex. Cytotoxicity was assessed using the MTT assay. Briefly, HepG2 human hepatocellular carcinoma cells (100 μL per well) were plated on black-walled clear-bottomed polystyrene 96-well tissue culture treated plates 24 h prior to dosing the cells. The cells were dosed with test compound (dissolved in 0.5% DMSO in growth media containing 10% FBS) at a range of concentrations (0.04 μM, 0.1 μM, 0.4 μM, 1 μM, 4 μM, 10 μM, 40 μM, 100 μM). After 23 h period the cells were loaded with the MTT dye (yellow; 3-(4,5-dimethyl-2-thiazolyl)-2,5-diphenyl-2H-tetrazolium bromide) followed by an additional 1 h incubation (resulting in a total incubation time with antibiotics of 24 h). Subsequently, the plates are dried and solubilized in DMSO followed by scanning at 570 nm using a microplate absorbance reader. Cell viability is determined by conversion of the soluble MTT to insoluble formazan (purple) by mitochondrial […] in live cells. Production of formazan indicates […]. Carbonyl cyanide 3-chlorophenylhydrazone is used as no response control and chlorpromazine is used as control known to be cytotoxic. Solvent control wells (0.5% DMSO in growth media containing 10% FBS) are then used to determine significance limits for wells that have a greater than expected fraction of low or high responders. The minimum effective concentration is determined from the lowest concentration whose mean value exceeds the significance level, provided either a clear dose-response relationship is observed, or at least two consecutive concentration points are above the significance level. AC50 values are also determined provided a clear dose-response relationship is observed. Experiment was performed in triplicates.

[3] = system: VRS11b; experiment: MIC assay, VISA and VRSA panel; type: cell-based, Staphylococcus aureus
Method: as §1

[4] = system: VRS1; experiment: MIC assay, VISA and VRSA panel; type: cell-based, Staphylococcus aureus
Method: as §1

[5] = Cytotoxicity assay for HepG2 (MTT); type: cell-based, human; settings: human; MTT, HepG2, 24 h, 10% FBS, n = 3; read-out: AC50
Method: as §2

CCCCCCCNC(N)=Nc1ccc(CN[C@@]2(C)C[C@H](O[C@H]3[C@H](Oc4c5cc6cc4Oc4ccc(cc4Cl)[C@@H](O)[C@@H](NC(=O)[C@@H](CC(C)C)NC)C(=O)N[C@@H](CC(N)=O)C(=O)N[C@H]6C(=O)N[C@H]4C(=O)N[C@H](C(=O)N[C@H](C(=O)O)c6cc(O)cc(O)c6-c6cc4ccc6O)[C@H](O)c4ccc(c(Cl)c4)O5)O[C@H](CO)[C@@H](O)[C@@H]3O)O[C@@H](C)[C@H]2O)cc1 [Compound 5]
MIC [1]: 0.031 µg/mL
AC50 ([2]; n = 3): > 100 µM
MIC ([3]; strain VRS11b): 16 µg/mL (≈ 9.44 µM)
MIC ([4]; strain VRS1): 16 µg/mL (≈ 9.44 µM)

CN[C@H](CC(C)C)C(=O)N[C@H]1C(=O)N[C@@H](CC(N)=O)C(=O)N[C@H]2C(=O)N[C@H]3C(=O)N[C@H](C(=O)N[C@H](C(=O)O)c4cc(O)cc(O)c4-c4cc3ccc4O)[C@H](O[C@H]3C[C@](C)(N)[C@@H](O)[C@H](C)O3)c3ccc(c(Cl)c3)Oc3cc2cc(c3O[C@@H]2O[C@H](CO)[C@@H](O)[C@H](O)[C@H]2O[C@H]2C[C@](C)(NCc3ccc(-c4ccc(Cl)cc4)cc3)[C@@H](O)[C@H](C)O2)Oc2ccc(cc2Cl)[C@H]1O [Oritavancin]
AC50 at 24 h [5]: > 100 µM
Direction of response (↑↓) [2]: ↓
MEC ([2]; n = 3): 76.5 µM
MIC ([3]; Staphylococcus aureus): 1 µg/mL (≈ 0.558 µM)
MIC ([4]; Staphylococcus aureus): 1 µg/mL (≈ 0.558 µM)

CCCCCCCCCNC(N)=Nc1ccc(CN[C@@]2(C)C[C@H](O[C@H]3[C@H](Oc4c5cc6cc4Oc4ccc(cc4Cl)[C@@H](O)[C@@H](NC(=O)[C@@H](CC(C)C)NC)C(=O)N[C@@H](CC(N)=O)C(=O)N[C@H]6C(=O)N[C@H]4C(=O)N[C@H](C(=O)N[C@H](C(=O)O)c6cc(O)cc(O)c6-c6cc4ccc6O)[C@H](O)c4ccc(c(Cl)c4)O5)O[C@H](CO)[C@@H](O)[C@@H]3O)O[C@@H](C)[C@H]2O)cc1 [Compound 7]
MIC [1]: 0.063 µg/mL

CCCCCCCCNC(N)=Nc1ccc(CN[C@@]2(C)C[C@H](O[C@H]3[C@H](Oc4c5cc6cc4Oc4ccc(cc4Cl)[C@@H](O)[C@@H](NC(=O)[C@@H](CC(C)C)NC)C(=O)N[C@@H](CC(N)=O)C(=O)N[C@H]6C(=O)N[C@H]4C(=O)N[C@H](C(=O)N[C@H](C(=O)O)c6cc(O)cc(O)c6-c6cc4ccc6O)[C@H](O)c4ccc(c(Cl)c4)O5)O[C@H](CO)[C@@H](O)[C@@H]3O)O[C@@H](C)[C@H]2O)cc1 [Compound 6]
MIC [1]: 0.063 µg/mL

CCCCCCCCCCNCCN[C@@]1(C)C[C@H](O[C@H]2[C@H](Oc3c4cc5cc3Oc3ccc(cc3Cl)[C@@H](O)[C@@H](NC(=O)[C@@H](CC(C)C)NC)C(=O)N[C@@H](CC(N)=O)C(=O)N[C@H]5C(=O)N[C@H]3C(=O)N[C@H](C(=O)N[C@H](C(=O)O)c5cc(O)c(CNCP(=O)(O)O)c(O)c5-c5cc3ccc5O)[C@H](O)c3ccc(c(Cl)c3)O4)O[C@H](CO)[C@@H](O)[C@@H]2O)O[C@@H](C)[C@H]1O [Telavancin, reference compound]
AC50 at 24 h [5]: > 100 µM
MIC ([3]; Staphylococcus aureus): 8 µg/mL (≈ 4.56 µM)
MIC ([4]; Staphylococcus aureus): 8 µg/mL (≈ 4.56 µM)

CN[C@H](CC(C)C)C(=O)N[C@H]1C(=O)N[C@@H](CC(N)=O)C(=O)N[C@H]2C(=O)N[C@H]3C(=O)N[C@H](C(=O)N[C@H](C(=O)O)c4cc(O)cc(O)c4-c4cc3ccc4O)[C@H](O)c3ccc(c(Cl)c3)Oc3cc2cc(c3O[C@@H]2O[C@H](CO)[C@@H](O)[C@H](O)[C@H]2O[C@H]2C[C@](C)(NCc3ccc(N=C(N)NC/C=C(\C)CCC=C(C)C)cc3)[C@H](O)[C@H](C)O2)Oc2ccc(cc2Cl)[C@H]1O [Compound 14]
MIC [1]: 0.063 µg/mL

CN[C@H](CC(C)C)C(=O)N[C@H]1C(=O)N[C@@H](CC(N)=O)C(=O)N[C@H]2C(=O)N[C@H]3C(=O)N[C@H](C(=O)N[C@H](C(=O)O)c4cc(O)cc(O)c4-c4cc3ccc4O)[C@H](O)c3ccc(c(Cl)c3)Oc3cc2cc(c3O[C@@H]2O[C@H](CO)[C@@H](O)[C@H](O)[C@H]2O[C@H]2C[C@](C)(N)[C@H](O)[C@H](C)O2)Oc2ccc(cc2Cl)[C@H]1O [Vancomycin, reference compound]
AC50 at 24 h [5]: > 100 µM
MIC ([3]; Staphylococcus aureus): > 128 µg/mL
MIC ([4]; Staphylococcus aureus): > 128 µg/mL

CCCCCCN(CCCCCC)C(N)=Nc1ccc(CN[C@@]2(C)C[C@H](O[C@H]3[C@H](Oc4c5cc6cc4Oc4ccc(cc4Cl)[C@@H](O)[C@@H](NC(=O)[C@@H](CC(C)C)NC)C(=O)N[C@@H](CC(N)=O)C(=O)N[C@H]6C(=O)N[C@H]4C(=O)N[C@H](C(=O)N[C@H](C(=O)O)c6cc(O)cc(O)c6-c6cc4ccc6O)[C@H](O)c4ccc(c(Cl)c4)O5)O[C@H](CO)[C@@H](O)[C@@H]3O)O[C@@H](C)[C@H]2O)cc1 [Compound 12]
MIC [1]: 0.063 µg/mL
AC50 ([2]; n = 3): > 100 µM
MIC ([3]; strain VRS11b): 4 µg/mL (≈ 2.27 µM)
MIC ([4]; strain VRS1): 4 µg/mL (≈ 2.27 µM)
